Series [1] has as its system L-02 cells. Briefly: Cell growth inhibition assay (CCK-8). Format: cell-based, human. The conditions noted are these: single compounds; for IC50 (cell viability): L-02, 24 h exposure; for IC50: Homo sapiens, L02, L-02, 24 h exposure, read-out: IC50 (cell viability).
A short description of series [2]: Stability of analytes in cell lysates (LC–MS/MS method validation). Format: physicochemical. The conditions noted are these: n=3; for Post-preparation stability RE%: 4 ℃, 24 h at autosampler; for Short-term stability RE%: 12 h at room temperature; for Long-term stability RE%: -80℃ for a month; for Freeze-thaw stability RE%: three freeze-thaw. As to the method: The stability of seven analytes including short-term stability (12 h at room temperature), post-preparation stability at 4 ℃ (24 h at autosampler), freeze-thaw stability (three freeze-thaw stability) and long-term stability (-80℃ for a month) was tested by analyzing three replicates at low and high QC levels during various sample storage and handling process.

Series [3] relates to L-02 cells. As to the kind of experiment: Intracellular identification of L-02 cell-uptake components by LC–MS/MS. Format: in vitro ADME, human. The settings on record: L-02 exposed to JLZS-containing medium 6.5 mg/mL for 2 h. Here is the method: The powder of 25 g FT and 25 g RC was evenly blended and then refluxed twice with six-fold 50% ethanol (1: 6, w/v) for 1 h; the collected filtrate was evaporated to dryness and further dissolved in DMSO, after filtering using the 0.22-µm cellulose acetate membrane. JLZS-containing medium (6.5 mg/mL) was freshly prepared by diluting the filtrate with RPMI-1640. Likewise, RC-containing medium was freshly prepared in the same method independently.
L-02 cells were seeded on 9-cm-diameter cell culture plates; after ∼80% confluent, the cultured cells were incubated with 6.5 mg/mL JLZS-containing medium. After 2-h exposure, L-02 cells were quickly washed free of culture medium with cold PBS (−) twice and harvested with 1 mL of 0.25% trypsin-EDTA for cell isolation. The cell suspension (∼5 × 10^6 cells) was spun down, and the cells were further washed twice in cold PBS (−). Then, 200 µL of methanol was used to lyse the collected cells with vortex mixing for 1 min. The cell lysates were centrifuged at 12,000 rpm for 4 min, and 10 μL of the centrifugal supernatant was injected into the LC–MS/MS system for identified analysis.
The LC–MS/MS system consisted of a Thermo TSQ Quantum Ultra triple-quadrupole mass spectrometer equipped with an electrospray ionization source (San Jose, CA, United States). LCquan quantitation software (version 2.5.6, Thermo Fisher Scientific, Waltham, MA, USA) was used to control the LC–MS/MS system for data acquisition and analysis. Analytes and IS separation were conducted using a Waters XTerra® MS C18 column (3.0 mm × 50 mm, 5 µm) maintained at 20 °C. By injecting 5 µL samples with a flow rate of 0.2 mL/min, chromatographic separation was achieved using a mobile phase of 0.1% formic acid–water (A) and methanol (B) via gradient elution, 0.0–2.0 min, 35%–50% B; 2.0–2.1 min, 50%–55% B; 2.1–2.5 min, 55%–60% B; 2.5–14.0 min, 60% B. The analytes and IS were detected in the ESI source by polarity switching from positive for 0.0–8.0 min to negative-ion modes for 8.5–14.0 min in a single run with multiple reaction monitoring (MRM).

Series [4] has as its system L-02 cells. As to the kind of experiment: Intracellular accumulation in L-02 cells by LC–MS/MS. Format: in vitro ADME, human. The settings on record: for intracellular uptake in the JLZS group compared with the RC group: L-02, JLZS 6.5 mg/mL vs RC 3.25 mg/mL; for intracellular uptake in the JLZS group compared with the RC group / Intracellular concentration: n = 6; for Intracellular concentration: L-02, JLZS extracts 6.5 mg/mL.

Details of series [5]: method as in Gu et al., 2021. The conditions noted are these: pharmacokinetic level, JLZS vs single herb; ref Gu et al., 2021; cited from earlier work.

Data on 10 compounds can be found in PMC12162926, “A novel strategy for identifying hepatotoxic constituents in traditional Chinese medicine using dose-normalized intracellular accumulation as a cytotoxicity indicator: a case study of Jinlingzi San” (Frontiers in Pharmacology, 2025).

Regarding `COc1ccc2c(c1OC)CN(C)CCc1cc3c(cc1C(=O)C2)OCO3` [ALL, allocryptopine], the “IC50 (cell viability)” value in series [1] is “not detected IC50 values within the set concentration range”.
As to `COc1ccc2cc3[n+](cc2c1OC)CCc1cc2c(cc1-3)OCO2` [BER, berberine], the “Post-preparation stability RE%” value in series [2] (high QC level) came to 3.1%; in series [2] (low QC level), 1.8%. For the same compound, the results for the “Short-term stability RE%” value in series [2] (high QC level) and in series [2] (low QC level) were 2.5% and 5.6%, respectively. Further, the “Long-term stability RE%” value in series [2] (high QC level) is on record as 1.2%; in series [2] (low QC level), 1.8%. Further, the “Freeze-thaw stability RE%” value was determined as 6.9% in series [2] (high QC level) and 5.6% in series [2] (low QC level). In addition, the “detection in cell lysates” value in series [3] is reported as “found in the cell lysates”. For the same compound, the IC50 (commonly the midpoint of a concentration-inhibition curve) in series [1] came to 41.2 µg/mL. Moreover, the “intracellular uptake in the JLZS group compared with the RC group” value in series [4] is “decreased significantly”. For the same compound, the Intracellular concentration is 3.2 ± 0.5 ng/mL in series [4] (time 0.25 h); 3.7 ± 0.3 ng/mL in series [4] (time 0.5 h); 5.5 ± 1.3 ng/mL in series [4] (time 1 h); 7.2 ± 2.5 ng/mL in series [4] (time 1.5 h); 8.3 ± 4.0 ng/mL in series [4] (time 2 h); 10.1 ± 1.7 ng/mL in series [4] (time 3 h). Further, the results for the Intracellular concentration in series [4] (time 5 h) and in series [4] (time 8 h) were 12.3 ± 2.5 ng/mL and 15.6 ± 4.9 ng/mL, respectively.
Regarding `c1c2c(cc3c1OCO3)-c1cc3ccc4c(c3c[n+]1CC2)OCO4` [COP, coptisine], the “Post-preparation stability RE%” value is listed as 6.8% in series [2] (high QC level) and -0.6% in series [2] (low QC level). Further, the “Short-term stability RE%” value in series [2] (high QC level) stood at 6.2%; in series [2] (low QC level), 5.6%. The “Long-term stability RE%” value in series [2] (high QC level) amounted to 6.6%; in series [2] (low QC level), 4.0%. The results for the “Freeze-thaw stability RE%” value in series [2] (high QC level) and in series [2] (low QC level) were 5.0% and 0.7%, respectively. The “detection in cell lysates” value in series [3] is given as “found in the cell lysates”. Further, the IC50 in series [1] stood at 14 µg/mL. Moreover, the “intracellular uptake in the JLZS group compared with the RC group” value in series [4] was “decreased significantly”. In addition, the Intracellular concentration in series [4] (time 0.25 h) came out at 38.3 ± 4.9 ng/mL; in series [4] (time 0.5 h), 44.0 ± 11.4 ng/mL; in series [4] (time 1 h), 67.5 ± 7.7 ng/mL; in series [4] (time 1.5 h), 84.4 ± 21.2 ng/mL; in series [4] (time 2 h), 98.1 ± 34.8 ng/mL; in series [4] (time 3 h) it was 134.8 ± 24.4 ng/mL. The figures for the Intracellular concentration in series [4] (time 5 h) and in series [4] (time 8 h) were 197.6 ± 45.9 ng/mL and 261.8 ± 60.2 ng/mL, respectively. Also, the “dose-normalized intracellular accumulation (ranking)” value in series [4] (ratio of highest intracellular accumulation versus content in JLZS extracts, L-02) was “the highest”.
In the case of `COc1cc2c(cc1OC)[C@H]1[C@@H](C)c3ccc(OC)c(OC)c3CN1CC2` [COR, corydaline], the “elimination in the JLZS group compared with the single-herb group” value in series [5] was “decreased significantly”. The “IC50 (cell viability)” value in series [1] is “not detected IC50 values within the set concentration range”.
`COc1cc2c(cc1OC)-c1c(C)c3ccc(OC)c(OC)c3c[n+]1CC2` [DHC, dehydrocorydaline]: the “Post-preparation stability RE%” value is listed as 6.6% in series [2] (high QC level) and -0.2% in series [2] (low QC level). Moreover, the entries for the “Short-term stability RE%” value in series [2] (high QC level) and in series [2] (low QC level) were 8.8% and -2.4%, respectively. Moreover, the “Long-term stability RE%” value worked out at 1.3% in series [2] (high QC level) and 2.3% in series [2] (low QC level). The “Freeze-thaw stability RE%” value is 0.4% in series [2] (high QC level) and -0.6% in series [2] (low QC level). For the same compound, the “elimination in the JLZS group compared with the single-herb group” value in series [5] is on record as “decreased significantly”. Besides, the “detection in cell lysates” value in series [3] is given as “found in the cell lysates”. In addition, the “IC50 (cell viability)” value in series [1] is listed as “not detected IC50 values within the set concentration range”. Besides, the Intracellular concentration in series [4] (time 0.25 h) is on record as 15.2 ± 2.9 ng/mL; in series [4] (time 0.5 h) it was 26.1 ± 3.0 ng/mL; in series [4] (time 1 h), 53.1 ± 4.0 ng/mL; in series [4] (time 1.5 h), 71.9 ± 5.5 ng/mL; in series [4] (time 2 h), 74.8 ± 6.2 ng/mL; in series [4] (time 3 h) it was 82.0 ± 7.5 ng/mL. Further, the Intracellular concentration in series [4] (time 5 h) worked out at 122.0 ± 8.7 ng/mL; in series [4] (time 8 h), 98.2 ± 9.6 ng/mL.
On to `COc1cc2c(cc1O)CC[n+]1cc3c(OC)c(OC)ccc3cc1-2` [JAT, jatrorrhizine], for which the “Post-preparation stability RE%” value in series [2] (high QC level) is given as 4.7%; in series [2] (low QC level) it was -0.2%. Moreover, the entries for the “Short-term stability RE%” value in series [2] (high QC level) and in series [2] (low QC level) were 8.0% and 5.3%, respectively. In addition, the “Long-term stability RE%” value worked out at 4.0% in series [2] (high QC level) and 1.9% in series [2] (low QC level). Further, the “Freeze-thaw stability RE%” value is given as 8.0% in series [2] (high QC level) and 2.9% in series [2] (low QC level). Also, the “detection in cell lysates” value in series [3] is reported as “found in the cell lysates”. For the same compound, the “IC50 (cell viability)” value in series [1] was “not detected IC50 values within the set concentration range”. Further, the Intracellular concentration in series [4] (time 0.25 h) is 13.4 ± 0.2 ng/mL; in series [4] (time 0.5 h) it was 13.8 ± 0.8 ng/mL; in series [4] (time 1 h), 14.9 ± 0.8 ng/mL; in series [4] (time 1.5 h), 15.8 ± 1.8 ng/mL; in series [4] (time 2 h), 16.3 ± 1.9 ng/mL; in series [4] (time 3 h), 19.6 ± 1.0 ng/mL. Also, the Intracellular concentration in series [4] (time 5 h) is reported as 21.2 ± 3.5 ng/mL; in series [4] (time 8 h), 26.2 ± 6.0 ng/mL.
Regarding `CN1CCc2cc3c(cc2C(=O)Cc2ccc4c(c2C1)OCO4)OCO3` [PRO, protopine], the “IC50 (cell viability)” value in series [1] is recorded as “not detected IC50 values within the set concentration range”.
With `C[C@@H]1O[C@@H](OC[C@H]2O[C@@H](Oc3c(-c4ccc(O)c(O)c4)oc4cc(O)cc(O)c4c3=O)[C@H](O)[C@@H](O)[C@@H]2O)[C@H](O)[C@H](O)[C@H]1O` [RUT, rutin], the “IC50 (cell viability)” value in series [1] is reported as “not detected IC50 values within the set concentration range”.
As to `COc1ccc2c(c1OC)CN1CCc3cc4c(cc3C1C2)OCO4` (stereo not shown) [THB, tetrahydroberberine], the “elimination in the JLZS group compared with the single-herb group” value in series [5] was “decreased significantly”. For the same compound, the “IC50 (cell viability)” value in series [1] was “not detected IC50 values within the set concentration range”.
`COc1cc2c(cc1OC)[C@@H]1Cc3ccc(OC)c(OC)c3CN1CC2` [THP, tetrahydropalmatine]: the “elimination in the JLZS group compared with the single-herb group” value in series [5] was “decreased significantly”. Further, the “IC50 (cell viability)” value in series [1] is “not detected IC50 values within the set concentration range”.
